Earlier results as cited in US6875451B2, “Compositions and methods for the treatment of primary and metastatic neoplastic diseases using arsenic compounds” (PolaRx Biopharmaceuticals Inc., priority 1997, dated 2005).

Test system: cell lines representative of chronic B-cell leukemia
Conditions: cited from earlier work

Q: For `Nc1nc(N)nc(Nc2ccc([As]3SCC(CO)S3)cc2)n1` (stereo not shown) [melarsoprol], which apoptosis is on record?
A: induce apoptosis
